Where “and” joins values, the source holds several entries; their conditions need not be identical. Equal values may be shown once. Toxic doses and inconclusive results are not listed.

19 compounds from PubChem BioAssay AID328 (DTP/NCI, 2004) can be followed below.

In the test the test system is BDF1 mice, P388 leukemia ip, median survival T/C. Description: NCI In Vivo Anticancer Drug Screen. Data for tumor model P388 Leukemia (intraperitoneal) in B6D2F1 (BDF1) mice. The note with it: endpoint: median survival time, higher = longer survival. The gist of the method: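 Reported as T/C, where T is the survival measurement in dosed animals and C the same measurement in vehicle controls.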

Where [1] appears, read: dose: 100.0 mg/kg/injection, schedule: Q04DX003 (ip), vehicle: saline.
[2] abbreviates: dose: 200.0 mg/kg/injection, schedule: Q04DX003 (ip), vehicle: saline.
[3] abbreviates: dose: 400.0 mg/kg/injection, schedule: Q04DX003 (ip), vehicle: saline.
The mark [4] stands for this setting: dose: 100.0 mg/kg/injection, schedule: Q04DX003 (ip), vehicle: saline with Tween-80.
Where [5] appears, read: dose: 12.5 mg/kg/injection, schedule: Q01DX009 (ip), vehicle: Klucel (hydroxypropylcellulose) (HPC).
Where [6] appears, read: dose: 25.0 mg/kg/injection, schedule: Q01DX009 (ip), vehicle: Klucel (hydroxypropylcellulose) (HPC).
[7] abbreviates: dose: 50.0 mg/kg/injection, schedule: Q01DX009 (ip), vehicle: Klucel (hydroxypropylcellulose) (HPC).
Where [8] appears, read: dose: 50.0 mg/kg/injection, schedule: Q04DX003 (ip), vehicle: Klucel (hydroxypropylcellulose) (HPC).
[9] abbreviates: dose: 12.5 mg/kg/injection, schedule: Q04DX003 (ip), vehicle: saline with Tween-80.
Setting [10] is: dose: 25.0 mg/kg/injection, schedule: Q04DX003 (ip), vehicle: saline with Tween-80.
Where [11] appears, read: dose: 100.0 mg/kg/injection, schedule: Q01DX009 (ip), vehicle: Klucel (hydroxypropylcellulose) (HPC).
[12] abbreviates: dose: 200.0 mg/kg/injection, schedule: Q01DX009 (ip), vehicle: Klucel (hydroxypropylcellulose) (HPC).
Where [13] appears, read: dose: 50.0 mg/kg/injection, schedule: Q01DX009 (ip), vehicle: saline with Tween-80.
Where [14] appears, read: dose: 12.5 mg/kg/injection, schedule: Q01DX009 (ip), vehicle: saline with Tween-80.
The mark [15] stands for this setting: dose: 25.0 mg/kg/injection, schedule: Q01DX009 (ip), vehicle: saline with Tween-80.
The mark [16] stands for this setting: dose: 50.0 mg/kg/injection, schedule: Q04DX003 (ip), vehicle: saline with Tween-80.

As to `O=C1C=C(C2CCCCC2)C(=O)C2CCCCC12` (centres undefined), the T/C was 110 % of control under setting [1], 105 % of control under setting [2] and 120 % of control under setting [3].

As to `O=S(=O)(O)C1(O)CCCCC1`, the T/C by setting is: (dose: 100.0 mg/kg/injection, schedule: Q01DX009 (ip), vehicle: saline) 105 % of control; under setting [4], 95 % of control; under setting [1], 109 % of control; (dose: 200.0 mg/kg/injection, schedule: Q01DX009 (ip), vehicle: saline) 100 % of control; (dose: 200.0 mg/kg/injection, schedule: Q04DX003 (ip), vehicle: saline with Tween-80) 104 % of control; under setting [2], 104 % of control. For the same compound, the T/C by setting is: (dose: 400.0 mg/kg/injection, schedule: Q01DX009 (ip), vehicle: saline) 105 % of control; (dose: 400.0 mg/kg/injection, schedule: Q04DX003 (ip), vehicle: saline with Tween-80) 100 % of control; under setting [3], 100 % of control.

As for `COC(=O)C1C2(C)CCc3cc(OC)ccc3C2=CC(=O)C1(C)C(=O)OC` (centres undefined), the T/C (dose: 50.0 mg/kg/injection, schedule: Q04DX003 (sc), vehicle: steriod suspending solution) is 100 % of control and the T/C (dose: 100.0 mg/kg/injection, schedule: Q04DX003 (sc), vehicle: steriod suspending solution) was 90 % of control.

For the compound `COc1c2c([n+](C)c3c(OC)cccc13)OC(C(C)C)C2` (centres undefined), the T/C reads like this: (dose: 0.03 mg/kg/injection, schedule: Q01DX009 (ip), vehicle: saline) 109 % of control; (dose: 0.06 mg/kg/injection, schedule: Q01DX009 (ip), vehicle: saline) 104 % of control; (dose: 0.12 mg/kg/injection, schedule: Q01DX009 (ip), vehicle: saline) 109 % of control; (dose: 0.18 mg/kg/injection, schedule: Q04DX003 (ip), vehicle: saline) 100 % of control; (dose: 0.25 mg/kg/injection, schedule: Q01DX009 (ip), vehicle: Klucel (hydroxypropylcellulose) (HPC)) 104 % of control; (dose: 0.25 mg/kg/injection, schedule: Q01DX009 (ip), vehicle: saline) 104 % of control and 120 % of control. The T/C is, setting by setting: (dose: 0.37 mg/kg/injection, schedule: Q04DX003 (ip), vehicle: saline) 118 % of control; (dose: 0.5 mg/kg/injection, schedule: Q01DX009 (ip), vehicle: Klucel (hydroxypropylcellulose) (HPC)) 104 % of control; (dose: 0.5 mg/kg/injection, schedule: Q01DX009 (ip), vehicle: saline) 112 % of control; (dose: 0.75 mg/kg/injection, schedule: Q04DX003 (ip), vehicle: saline) 104 % of control; (dose: 1.0 mg/kg/injection, schedule: Q01DX009 (ip), vehicle: Klucel (hydroxypropylcellulose) (HPC)) 118 % of control; (dose: 1.1 mg/kg/injection, schedule: Q04DX003 (ip), vehicle: saline) 90 % of control. Further, the T/C reads like this: (dose: 1.7 mg/kg/injection, schedule: Q04DX003 (ip), vehicle: saline) 100 % of control; (dose: 2.5 mg/kg/injection, schedule: Q04DX003 (ip), vehicle: saline) 90 % of control; (dose: 3.6 mg/kg/injection, schedule: Q04DX003 (ip), vehicle: saline) 86 % of control.

`O=C1C(Br)=CC(=NCl)C=C1Br`: the T/C reads like this: (dose: 3.13 mg/kg/injection, schedule: Q01DX009 (ip), vehicle: Klucel (hydroxypropylcellulose) (HPC)) 118 % of control; (dose: 6.25 mg/kg/injection, schedule: Q01DX009 (ip), vehicle: Klucel (hydroxypropylcellulose) (HPC)) 112 % of control; under setting [5], 120 % of control; under setting [6], 103 % of control.

For the compound `C=C1N(C)c2ccccc2C1(C)C`, the T/C (dose: 1.47 mg/kg/injection, schedule: Q01DX009 (ip), vehicle: saline with Tween-80) was 104 % of control; the T/C (dose: 2.95 mg/kg/injection, schedule: Q01DX009 (ip), vehicle: saline with Tween-80) is 118 % of control; the T/C (dose: 5.9 mg/kg/injection, schedule: Q01DX009 (ip), vehicle: saline with Tween-80) is 122 % of control.

On to `O=[N+]([O-])/C=C/c1ccc([N+](=O)[O-])cc1Cl`, for which the T/C is, setting by setting: under setting [5], 109 % of control; under setting [6], 109 % of control; (dose: 25.0 mg/kg/injection, schedule: Q04DX003 (ip), vehicle: Klucel (hydroxypropylcellulose) (HPC)) 115 % of control; under setting [7], 104 % of control; under setting [8], 107 % of control; (dose: 100.0 mg/kg/injection, schedule: Q04DX003 (ip), vehicle: Klucel (hydroxypropylcellulose) (HPC)) 88 % of control.

In the case of `COc1ccc2c3c1OC1CC(O)C=CC31CCN(C)C2` (centres undefined), the T/C (dose: 5.0 mg/kg/injection, schedule: Q01DX010 (ip), vehicle: carboxymethylcellulose (CMC)) is 100 % of control.

In the case of `C(#CCN1CCOCC1)CCCN1CCOCC1`, the T/C runs as follows: under setting [1], 95 % of control; under setting [2], 100 % of control; under setting [3], 100 % of control.

On to `OC(CCl)CN1CC[N+]2(CC1)CC[N+]1(CCN(CC(O)CCl)CC1)CC2` (centres undefined), for which the T/C (dose: 11.25 mg/kg/injection, schedule: Q01DX009 (ip), vehicle: water) was 114 % of control; the T/C (dose: 27.5 mg/kg/injection, schedule: Q01DX009 (ip), vehicle: water) was 100 % of control; the T/C (dose: 45.0 mg/kg/injection, schedule: Q01DX009 (ip), vehicle: water) was 115 % of control; the T/C (dose: 200.0 mg/kg/injection, schedule: Q01DX009 (ip), vehicle: water) is 153 % of control and 159 % of control.

Regarding `FC(F)(F)c1ccc2c(c1)N(CCCN1CCN(CCOc3ccccc3)CC1)c1ccccc1S2`, the T/C (dose: 6.25 mg/kg/injection, schedule: Q04DX003 (ip), vehicle: saline with Tween-80) was 96 % of control and 115 % of control; the T/C under setting [9] is 93 % of control and 115 % of control; the T/C under setting [10] is 114 % of control and 122 % of control.

Turning to `Oc1ccc(C2CCCCC2)c(O)c1`, the T/C was 100 % of control under setting [7]; 91 % of control under setting [8]; 104 % of control under setting [11]; 100 % of control under setting [12]; 91 % of control (dose: 200.0 mg/kg/injection, schedule: Q04DX003 (ip), vehicle: Klucel (hydroxypropylcellulose) (HPC)).

On to `C[N+]1(C)N=C([O-])N(c2ccccc2[N+](=O)[O-])C1=O`, for which the T/C under setting [13] is 88 % of control.

Regarding `COC(=O)c1ccc(OP(=O)(N(C)C)N(C)C)cc1`, the T/C was 117 % of control under setting [14] and 115 % of control under setting [15].

Turning to `CCOC(=O)c1ccc(NC(N)=O)cc1`, the T/C reads like this: under setting [10], 100 % of control; under setting [16], 102 % of control; under setting [4], 99 % of control.

Take `Cc1ccc(S)cc1`: the T/C under setting [14] was 104 % of control; the T/C under setting [15] was 95 % of control; the T/C under setting [10] was 100 % of control; the T/C under setting [13] was 108 % of control; the T/C under setting [16] was 91 % of control.

Turning to `CCOC(=O)CS(=O)(=O)c1ccc(NC(C)=O)cc1`, the T/C is 104 % of control under setting [7]; 91 % of control and 120 % of control under setting [11]; 96 % of control and 115 % of control under setting [12]; 105 % of control (dose: 400.0 mg/kg/injection, schedule: Q01DX009 (ip), vehicle: Klucel (hydroxypropylcellulose) (HPC)).

Take `CCN(CC)Cc1cc(Nc2cc(C)nc(Nc3ccc(Cl)c(Cl)c3)n2)ccc1OC`: the T/C is 110 % of control under setting [9], 110 % of control under setting [10] and 110 % of control under setting [16].

For `Nc1nc2c(c(=O)[nH]1)N(CCS(=O)(=O)F)C(CNc1ccc(C(=O)NC(CCC(=O)O)C(=O)O)cc1)CN2` (centres undefined), the T/C is 105 % of control (dose: 50.0 mg/kg/injection, schedule: Q04DX003 (ip), vehicle: sodium bicarbonate); 99 % of control (dose: 100.0 mg/kg/injection, schedule: Q04DX003 (ip), vehicle: sodium bicarbonate); 99 % of control (dose: 200.0 mg/kg/injection, schedule: Q04DX003 (ip), vehicle: sodium bicarbonate).
